Reference: PMC4669759 (Cell Death & Disease, 2015)

Key:
MCL1 mRNA = MCL1 mRNA by reverse transcriptase-PCR in HCC-1806 cells; format: cell-based; details: 8 h
Procedure: Figure 1 MCL-1 levels are elevated in cancer cells after treatment with MCL-1-binding small molecules. (a) H929 multiple myeloma cells were treated for 4 h with 10 μM A-1210477 before immunopreciptating MCL-1. […] A control H929 lysate was run in lane 1, and an immunoprecipitation with a non-specific antibody (Ig) was run in lane 2. The positions of molecular weight markers (specified in kiloDaltons) are indicated on the left. (b) HCC-1806 breast cancer cells were incubated with increasing concentrations of A-1210477 (0.1, 0.5, 1, 5, 10, 15, or 20 μM) or bortezomib (2, 10, or 50 nM) for 8 h before assessing MCL-1 and NOXA levels by immunoblotting. β-Actin was probed as a protein loading control. The lower graph depicts reverse transcriptase-PCR quantification of MCL1 mRNA from HCC-1806 cells treated for 8 h with similar concentrations of A-1210477. (c) HCC-1806 cells were incubated with increasing concentrations (0.1, 0.5, 1, 5, 10, and 20 μM) of A-954248, A-962653, or A-1248767 for 24 h before assessing MCL-1 and BCL-XL levels by immunoblotting. β-Actin was probed as a protein loading control

BCL-XL = BCL-XL (Homo sapiens, UniProt Q07817); assay: TR-FRET binding affinity assay, BCL-XL
Chain of BCL-XL (Q07817 whole entry): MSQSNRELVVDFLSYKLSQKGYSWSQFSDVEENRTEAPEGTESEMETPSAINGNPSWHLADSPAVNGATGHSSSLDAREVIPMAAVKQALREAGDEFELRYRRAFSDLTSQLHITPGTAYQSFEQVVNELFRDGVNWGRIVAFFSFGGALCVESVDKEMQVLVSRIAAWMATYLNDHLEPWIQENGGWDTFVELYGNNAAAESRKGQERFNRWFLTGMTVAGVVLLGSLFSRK
Procedure: TR-FRET-binding affinity assays were performed for BCL-2, BCL-XL, and MCL-1 in 4.52 mM monobasic potassium phosphate, 15.48 mM dibasic potassium phosphate, 1 mM sodium EDTA, 0.05% Pluronic F-68 detergent, 50 mM sodium chloride, and 1 mM DTT (pH 7.5) as described previously for BCL-XL.[6] For MCL-1 assays, GST-tagged MCL-1 (1 nM) was mixed with 100 nM f-Bak, 1 nM Tb-labeled anti-GST antibody, and compound at room temperature (RT) for 60 min. Fluorescence was measured on an Envision plate reader (Perkin-Elmer, Waltham, MA, USA) using a 340/35 nm excitation filter and 520/525 (f-Bak) and 495/510 nm (Tb-labeled anti-GST antibody) emission filters.

H929 cells = assay: Hallmarks of apoptosis in H929 cells (caspase-3/-7, mitochondrial membrane depolarization, phosphatidylserine); format: cell-based, human; details: H929, 4 h
Procedure: Figure 4 Indole-2-carboxylic acids induce the hallmarks of apoptosis in MCL-1-dependent cancer cell line H929. (a) Digitonin-permeabilized H929 cells were treated with 10 μM BH3 peptides for 4 h, and intact H929 cells were incubated with increasing concentrations (0.1–10 μM) of A-1208746 for 4 h before assessing the levels of cytochrome c released into the cytosol. (b) H929 and RS4;11 cells were incubated with increasing concentrations of MCL-1 inhibitors or the BCL-2-selective inhibitor ABT-199 (venetoclax) for 48 h before determining cell viability. Cell killing IC50s are plotted with each value representing the mean of three separate experiments. […]
H929 cells were cultured in RPMI 1640 (Invitrogen Corp., Grand Island, NY, USA) supplemented with 10% fetal bovine serum (Invitrogen), 1% sodium pyruvate, 25 mM HEPES, 4.5 g/l glucose, and 1% penicillin/streptomycin (Sigma) and maintained in a humidified chamber at 37 °C containing 5% CO2. […] Following treatment, the hallmarks of apoptosis (activation of caspase-3/-7, mitochondrial membrane depolarization, and phosphatidylserine externalization) were measured using the IntelliCyt (Albuquerque, NM, USA) MultiCyt 4-Plex Apoptosis Screening Kit according to the manufacturer's instructions and read by flow cytometry using a HTFC screening system (IntelliCyt). […] Data were expressed as the percentage of singlet cells. […]

H23 cells = assay: Navitoclax / A-1210477 combination cell viability, H23 cells; format: cell-based, human; details: H23, 48 h
Procedure: Figure 6 A-1210477 synergizes with navitoclax to kill hematological and solid tumor cell lines. BxPC-3, EJ-1, H23, and OPM-2 cells were treated with increasing concentrations of navitoclax in the presence or absence of increasing concentrations of A-1210477 for 48 h before assessing cell viability. All data points represent the means of triplicate experiments, with error bars indicating the S.E.M. TEXT PRINTED IN THE PICTURE: A-1210477 + navitoclax: Bliss sum (BxPC-3): 716; Bliss sum (EJ-1): 464; Bliss sum (H23): 76; Bliss sum (OPM-2): 946 DOUBTS OF THE COPYIST ABOUT THIS PICTURE: The Bliss sums apply to the combination of A-1210477 and navitoclax. The picture prints the two names separately (legend heading and axis title), not as one joined label.
Adherent cell lines were seeded at 50 000 cells per well in 96-well plates and treated for 48 h with compounds diluted in half-log steps starting at 30 μM and ending at 0.001 μM. Multiple myeloma cell lines were seeded at 15 000–20 000 cells per well and treated similarly. Effects on proliferation and viability were determined using CellTiter-Glo reagent from Promega (Madison, WI, USA) according to the manufacturer's instructions. IC50 values were determined by non-linear regression analysis of the concentration response data.

Cc1nn(C)c(COc2ccc(N3CCN(S(=O)(=O)N(C)C)CC3)cc2)c1-c1cccc2c(CCCOc3cccc4ccccc34)c(C(=O)O)n(CCN3CCOCC3)c12 [A-1210477]
effect on MCL1 mRNA (MCL1 mRNA): No corresponding increase in MCL1 mRNA | Ki (BCL-XL): > 660 nM | induction of hallmarks of apoptosis (mitochondrial membrane depolarization, caspase-3/-7 activation, phosphatidylserine externalization) (H929 cells): induced the hallmarks of apoptosis | potentiation of navitoclax (H23 cells): substantially shifted the dose–response curve of navitoclax
